Laboratory results taken from ChEMBL document CHEMBL5370585, “Exploration and Biological Evaluation of 1,3-Diamino-7H-pyrrol[3,2-f]quinazoline Derivatives as Dihydrofolate Reductase Inhibitors” (J Med Chem, 2023).
Values after ≈ are worked out from the molar mass of the structure shown. Active and inactive are the calls of the source. The calls are words filed in the database; no cut-off is given here.

What was measured:
Enterococcus faecalis [1] = assay: Antibacterial activity against Enterococcus faecalis EFA19-1 incubated for 16 to 18 hrs by CLSI based broth dilution method; format: functional; details: time 16-18 hrs
Staphylococcus aureus [2] = assay: Antibacterial activity against methicillin-resistant Staphylococcus aureus ATCC 43300 incubated for 16 to 18 hrs in presence of human plasma by CLSI based broth dilution method; format: functional; details: time 16-18 hrs
Escherichia coli [3] = assay: Antibacterial activity against Escherichia coli ATCC 25922 incubated for 16 to 18 hrs in absence of human plasma by CLSI based broth dilution method; format: functional; details: time 16-18 hrs
Acinetobacter baumannii [4] = assay: Antibacterial activity against Acinetobacter baumannii ATCC 19606 assessed as reduction in microbial growth incubated for 16 to 18 hrs by CLSI based broth dilution method; format: functional; details: time 16-18 hrs
Staphylococcus aureus [5] = assay: Antibacterial activity against Methicillin-resistant Staphylococcus aureus ATCC 43300 infected in ip dosed ICR mouse thigh infection model assessed as reduction in bacterial growth measured after 24 hrs post-treatment; format: functional, organism-based; details: dose lower 7.5 mg/kg, dose upper […]
Staphylococcus aureus [6] = assay: Antibacterial activity against vancomycin intermediate Staphylococcus aureus ATCC 700699 incubated for 16 to 18 hrs by CLSI based broth dilution method; format: functional; details: time 16-18 hrs
Acinetobacter baumannii [7] = assay: Antibacterial activity against Acinetobacter baumannii ATCC 19606 incubated for 16 to 18 hrs by CLSI based broth dilution method; format: functional; details: time 16-18 hrs
Acinetobacter baumannii [8] = assay: Antibacterial activity against Acinetobacter baumannii 20-2 incubated for 16 to 18 hrs by CLSI based broth dilution method; format: functional; details: time 16-18 hrs
Escherichia coli [9] = assay: Antibacterial activity against Escherichia coli ATCC 25922 incubated for 16 to 18 hrs by CLSI based broth dilution method; format: functional; details: time 16-18 hrs
[10] = test system: Staphylococcus epidermidis; assay: Antibacterial activity against Staphylococcus epidermidis ATCC 12228 incubated for 16 to 18 hrs by CLSI based broth dilution method; format: functional; details: time 16-18 hrs
Escherichia coli [11] = assay: Antibacterial activity against Escherichia coli ATCC 25922 incubated for 16 to 18 hrs in presence of human plasma by CLSI based broth dilution method; format: functional; details: time 16-18 hrs
Klebsiella pneumoniae [12] = assay: Antibacterial activity against Klebsiella pneumoniae 15-1 assessed as reduction in microbial growth incubated for 16 to 18 hrs by CLSI based broth dilution method; format: functional; details: time 16-18 hrs
Enterococcus faecalis [13] = assay: Antibacterial activity against Enterococcus faecalis ATCC 29212 incubated for 16 to 18 hrs by CLSI based broth dilution method; format: functional; details: time 16-18 hrs
Acinetobacter baumannii [14] = assay: Antibacterial activity against Acinetobacter baumannii 20-1 incubated for 16 to 18 hrs by CLSI based broth dilution method; format: functional; details: time 16-18 hrs
Escherichia coli [15] = assay: Antibacterial activity against Escherichia coli ATCC BAA-2340 incubated for 16 to 18 hrs by CLSI based broth dilution method; format: functional; details: time 16-18 hrs
Staphylococcus aureus [16] = assay: Antibacterial activity against Staphylococcus aureus ATCC 29213 incubated for 16 to 18 hrs in presence of human plasma by CLSI based broth dilution method; format: functional; details: time 16-18 hrs
Staphylococcus aureus [17] = assay: Antibacterial activity against methicillin-sensitive Staphylococcus aureus 15-2 incubated for 16 to 18 hrs by CLSI based broth dilution method; format: functional; details: time 16-18 hrs
Enterococcus = assay: Antibacterial activity against Vancomycin-resistant Enterococcus ATCC 51575 incubated for 16 to 18 hrs by CLSI based broth dilution method; format: functional; details: time 16-18 hrs
Escherichia coli [18] = assay: Antibacterial activity against Escherichia coli ECO 15-1 incubated for 16 to 18 hrs by CLSI based broth dilution method; format: functional; details: time 16-18 hrs
Staphylococcus aureus [19] = assay: Antibacterial activity against Staphylococcus aureus ATCC 29213 incubated for 16 to 18 hrs in absence of human plasma by CLSI based broth dilution method; format: functional; details: time 16-18 hrs
Enterococcus faecalis [20] = assay: Antibacterial activity against Enterococcus faecalis EFA19-2 incubated for 16 to 18 hrs by CLSI based broth dilution method; format: functional; details: time 16-18 hrs
Staphylococcus aureus [21] = assay: Antibacterial activity against methicillin-resistant Staphylococcus aureus ATCC 43300 incubated for 16 to 18 hrs by CLSI based broth dilution method; format: functional; details: time 16-18 hrs
Staphylococcus aureus [22] = assay: Antibacterial activity against methicillin-sensitive Staphylococcus aureus 15-1 incubated for 16 to 18 hrs by CLSI based broth dilution method; format: functional; details: time 16-18 hrs
Staphylococcus aureus [23] = assay: Antibacterial activity against Staphylococcus aureus ATCC 29213 incubated for 16 to 18 hrs by CLSI based broth dilution method; format: functional; details: time 16-18 hrs
Staphylococcus aureus [24] = assay: Antibacterial activity against methicillin-sensitive Staphylococcus aureus ATCC 29213 incubated for 16 to 18 hrs by CLSI based broth dilution method; format: functional; details: time 16-18 hrs
Klebsiella pneumoniae [25] = assay: Antibacterial activity against Klebsiella pneumoniae ATCC 700603 assessed as reduction in microbial growth incubated for 16 to 18 hrs by CLSI based broth dilution method; format: functional; details: time 16-18 hrs
Staphylococcus aureus [26] = assay: Antibacterial activity against vancomycin intermediate Staphylococcus aureus ATCC 700788 incubated for 16 to 18 hrs by CLSI based broth dilution method; format: functional; details: time 16-18 hrs
[27] = Toxicity in ICR mouse assessed as median lethal dose administered as single IP dose measured upto 8 days; details: in vivo, time < 8 day
Staphylococcus aureus [28] = assay: Antibacterial activity against methicillin-sensitive Staphylococcus aureus ATCC 25923 incubated for 16 to 18 hrs by CLSI based broth dilution method; format: functional; details: time 16-18 hrs
Pseudomonas aeruginosa = assay: Antibacterial activity against Pseudomonas aeruginosa ATCC 27853 incubated for 16 to 18 hrs by CLSI based broth dilution method; format: functional; details: time 16-18 hrs
Staphylococcus aureus [29] = assay: Antibacterial activity against methicillin-resistant Staphylococcus aureus ATCC 43300 incubated for 16 to 18 hrs in absence of human plasma by CLSI based broth dilution method; format: functional; details: time 16-18 hrs
Staphylococcus aureus [30] = assay: Antibacterial activity against methicillin-resistant Staphylococcus aureus ATCC 33591 incubated for 16 to 18 hrs by CLSI based broth dilution method; format: functional; details: time 16-18 hrs
[31] = Toxicity in BALB/c mouse xenografted with mouse EMT6 cells assessed as effect on body weight at 20 mg/kg, ip measured on day 14 (reference value: 21.6 +/-0.6g); format: organism-based; details: in vivo, 336 h, time 14 day
[32] = Toxicity in BALB/c mouse xenografted with mouse EMT6 cells assessed as effect on body weight at 20 mg/kg, ip measured on day 1 (reference value: 18.5 +/-0.5g); format: organism-based; details: in vivo, 24 h, time 1 day
[33] = Toxicity in BALB/c mouse xenografted with mouse EMT6 cells at 24 mg/kg, ip administered every 3 days for 14 consecutive days; format: organism-based; details: in vivo, 336 h, time 14 day
EMT6 [34] = assay: Antitumor activity against mouse EMT6 cells xenografted in BALB/c mouse model assessed as tumor weight at 20 mg/kg,ip administered every 3 days for 14 consecutive days (reference value: 1.53 +/-0.26g); format: functional; details: time 14 day
EMT6 [35] = assay: Antitumor activity against mouse EMT6 cells xenografted in BALB/c mouse model assessed as tumor growth inhibition at 20 mg/kg,ip administered every 3 days for 14 consecutive days relative to control; format: functional; parameters: scale not given: the % may be the effect or the level left; details: time 14 day
[36] = biological target: T1, Dihydrofolate reductase (Homo sapiens) (UniProt P00374); assay: Inhibition of human DHFR at 1 uM incubated for 10 mins in presence of NADPH by colorimetry based analysis relative to control
T1 sequence (whole entry): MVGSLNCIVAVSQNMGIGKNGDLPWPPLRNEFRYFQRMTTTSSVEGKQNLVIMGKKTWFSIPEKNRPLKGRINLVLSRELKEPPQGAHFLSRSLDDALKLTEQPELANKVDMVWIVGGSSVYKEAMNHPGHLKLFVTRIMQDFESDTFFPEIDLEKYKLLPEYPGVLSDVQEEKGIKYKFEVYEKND

Staphylococcus aureus [37] = assay: Drug resistance against methicillin-resistant Staphylococcus aureus ATCC 43300 assessed as fold increase in MIC measured after 10 passaging for 24 hrs; format: functional
MCF7 = assay: Cytotoxicity against human MCF7 cells measured after 72 hrs by MTT assay; format: functional, cell-based; details: MCF7, 72 h
HGC-27 = assay: Cytotoxicity against human HGC-27 cells measured after 72 hrs by MTT assay; format: functional, cell-based; details: HGC-27, 72 h
HCT-116 = assay: Cytotoxicity against human HCT-116 cells measured after 72 hrs by MTT assay; format: functional, cell-based; details: HCT-116, 72 h
HepG2 = assay: Cytotoxicity against human HepG2 cells measured after 72 hrs by MTT assay; format: functional, cell-based; details: HepG2, 72 h
[38] = Toxicity in ip dosed ICR mouse assessed as animal death at high dose measured upto 8 days; format: organism-based; details: in vivo, 192 h, time < 8 day
Staphylococcus aureus [39] = assay: Antibacterial activity against methicillin-resistant Staphylococcus aureus ATCC 43300 assessed as inhibition of bacterial growth at upto 8 times MIC measured upto 28 hrs by time kill curve assay; format: functional, organism-based
Staphylococcus aureus [40] = assay: Drug resistance against methicillin-resistant Staphylococcus aureus ATCC 43300 assessed as increase in MIC measured after 10 passaging for 24 hrs; format: functional, organism-based
Escherichia coli [41] = assay: Antibacterial activity against Escherichia coli ATCC 25922 assessed as inhibition of bacterial growth at upto 8 times MIC measured upto 28 hrs by time kill curve assay; format: functional, organism-based

| Compound | MIC (Staphylococcus aureus [2]) | MIC (Escherichia coli [3]) | MIC (Acinetobacter baumannii [7]) | MIC (Escherichia coli [9]) | MIC [10] | MIC (Escherichia coli [11]) | MIC (Enterococcus faecalis [13]) | MIC (Staphylococcus aureus [16]) | MIC (Staphylococcus aureus [19]) | MIC (Staphylococcus aureus [21]) | MIC (Staphylococcus aureus [23]) | LD50 at 192 h [27] | MIC (Staphylococcus aureus [29]) | IC50 (MCF7) | IC50 (HGC-27) | IC50 (HCT-116) | IC50 (HepG2) | also measured |
| --- | --- | --- | --- | --- | --- | --- | --- | --- | --- | --- | --- | --- | --- | --- | --- | --- | --- | --- |
| COc1cc(Cc2cnc(N)nc2N)cc(OC)c1OC [TRIMETHOPRIM] | 0.5 mg/L | 0.5 mg/L (≈ 1.72 µM) | 16 mg/L (≈ 55.1 µM) | 0.5 mg/L (≈ 1.72 µM) | ≤ 0.004 mg/L | 0.5 mg/L | 0.5 mg/L (≈ 1.72 µM) | 1 mg/L | 1 mg/L (≈ 3.44 µM) | 0.5 mg/L (≈ 1.72 µM) | 1 mg/L (≈ 3.44 µM) | > 800 mg/kg | 0.5 mg/L (≈ 1.72 µM) | – | – | – | – | MIC (Enterococcus faecalis [1]): 0.25 mg/L (≈ 0.861 µM); MIC (Acinetobacter baumannii [4]): 16 mg/L; Activity (Staphylococcus aureus [5]): Active; MIC (Staphylococcus aureus [6]): 1 mg/L (≈ 3.44 µM); MIC (Acinetobacter baumannii [8]): 16 mg/L (≈ 55.1 µM); MIC (Klebsiella pneumoniae [12]): 8 mg/L; MIC (Acinetobacter baumannii [14]): > 64 mg/L; MIC (Escherichia coli [15]): 64 mg/L (≈ 220 µM); MIC (Staphylococcus aureus [17]): 0.25 mg/L (≈ 0.861 µM); MIC (Enterococcus): ≤ 0.03 mg/L; MIC (Escherichia coli [18]): > 64 mg/L; MIC (Enterococcus faecalis [20]): 0.5 mg/L (≈ 1.72 µM); MIC (Staphylococcus aureus [22]): 0.5 mg/L (≈ 1.72 µM); MIC (Staphylococcus aureus [24]): 1 mg/L (≈ 3.44 µM); MIC (Klebsiella pneumoniae [25]): 4 mg/L; MIC (Staphylococcus aureus [26]): 0.5 mg/L (≈ 1.72 µM); MIC (Staphylococcus aureus [28]): 1 mg/L (≈ 3.44 µM); MIC (Pseudomonas aeruginosa): > 64 mg/L; MIC (Staphylococcus aureus [30]): 1 mg/L (≈ 3.44 µM) |
| CC(=O)O[C@H]1C(=O)[C@@]2(C)[C@H]([C@H](OC(=O)c3ccccc3)[C@]3(O)C[C@H](OC(=O)[C@H](O)[C@@H](NC(=O)c4ccccc4)c4ccccc4)C(C)=C1C3(C)C)[C@]1(OC(C)=O)CO[C@@H]1C[C@@H]2O [PACLITAXEL] | – | – | – | – | – | – | – | – | – | – | – | – | – | – | – | – | – | Activity [31]: 20.1 g; Activity [32]: 18.6 g; Activity [33]: Non-Toxic; Activity (EMT6 [34]): 0.71 g; Activity (EMT6 [35]): 53.2% |
| Nc1nc(N)c2c(ccc3c2ccn3Cc2ccc(-c3ccccc3)cc2)n1 | – | – | > 32 mg/L | > 128 mg/L | ≤ 0.004 mg/L | – | 0.25 mg/L (≈ 0.684 µM) | – | – | 0.5 mg/L (≈ 1.37 µM) | 1 mg/L (≈ 2.74 µM) | 154 mg/kg | – | 0.58 µM | 0.085 µM | 0.032 µM | 0.53 µM | inhibition [36]: 54.8%; fold change (FC) (Staphylococcus aureus [37]): 8 |
| Nc1nc(N)c2c(ccc3c2ccn3Cc2cccc3scnc23)n1 | 0.25 mg/L | 0.03 mg/L (≈ 0.0866 µM) | 0.5 mg/L (≈ 1.44 µM) | 0.03 mg/L (≈ 0.0866 µM) | ≤ 0.004 mg/L | 0.25 mg/L | ≤ 0.004 mg/L | 0.25 mg/L | 0.008 mg/L (≈ 0.0231 µM) | 0.004 mg/L (≈ 0.0115 µM) | 0.008 mg/L (≈ 0.0231 µM) | 88.9 mg/kg | ≤ 0.004 mg/L | 0.11 µM | 0.011 µM | 0.032 µM | 0.17 µM | Activity [38]: Toxic; Activity (Staphylococcus aureus [39]): Active; Activity (Staphylococcus aureus [40]): Active; Activity (Escherichia coli [41]): Active |
